The subject of this experiment is TK6 cells. Put plainly: Treatment with demecolcine and assessment of anti-H3-P performance (metaphase events by flow cytometry). Format: cell-based, human. The settings on record: 0.05 ng/ml, 5 hours. As for the experimental part: TK6 cells were treated with 0 or 0.05 ng demecolcine/ml in T25 tissue culture flasks. At the start of treatment, cells were at 5×10^5/ml in a volume of 20 ml per flask. Flasks were incubated at 37° C., 5% CO2, and in a humid atmosphere. After 5 hours, flasks were removed and 1 ml aliquots were placed in to 15 ml centrifuge tubes. Cells were collected via centrifugation, and supernatants aspirated such that approximately 25 μl of supernatant remained per tube. Cells were gently resuspended with tapping. 300 μl “Lysis Solution 1” was added slowly to each tube (approximately 5 seconds per sample). […]
Samples were gently pipetted to resuspend the particles. […] SYTOX®-associated fluorescence emission was collected in the FITC channel, EMA-associated fluorescence was collected in the PerCP-Cy5 channel, and anti-H3-P-Alexa 647 associated fluorescence was collected in the APC channel. Events were triggered on FITC fluorescence. The flow cytometry gating strategy that was developed for this scoring application required events to meet each of several separate criteria before they were scored as nuclei, MN, chromatin debris, or metaphase chromosomes. […]
In this experiment, TK6 cells were treated with 0 or 0.05 ng/ml demecolcine, a metaphase blocking agent. […] However, the anti-H3-P associated fluorescence signal is able to differentiate between G2 and metaphase chromosomes. […]
For orientation: A flow cytometer gives signals particle by particle.

With `CN[C@H]1CCc2cc(OC)c(OC)c(OC)c2-c2ccc(OC)c(=O)cc21` [demecolcine, Demecolcine], the “frequency of 4n anti-H3-P-positive events, FIG. 2” value is “greatly increased”.

The values are drawn from patent publication US20140017673A1, “METHOD FOR ENUMERATING EUKARYOTIC CELL MICRONUCLEI WITH AN EMPHASIS ON SIMULTANEOUSLY ACQUIRING CYTOTOXICITY AND MODE OF ACTION INFORMATION” (priority 2012, published 2014).
